Data as given in US20240343761A1, “APELINERGIC MACROCYCLES AND USES THEREOF” (priority 2021, published 2024).
Read-outs that look alike come from different tables or passages of the source. Bridge positions count the residues as written; N and C are the ends. Square brackets hold non-standard residues; d marks the D form. Ends that are not written are not given here. d1Nal = N[C@H](Cc1cccc2ccccc12)C(=O)O; AllylGly = C=CC[C@H](N)C(=O)O; Nle = CCCC[C@H](N)C(=O)O

T1: hAPJ receptor (Homo sapiens, UniProt P35414)
T1 construct: expressed in transfected cells; host or cells: HEK293, transient transfection with PEI
T1 sequence (P35414 1-380): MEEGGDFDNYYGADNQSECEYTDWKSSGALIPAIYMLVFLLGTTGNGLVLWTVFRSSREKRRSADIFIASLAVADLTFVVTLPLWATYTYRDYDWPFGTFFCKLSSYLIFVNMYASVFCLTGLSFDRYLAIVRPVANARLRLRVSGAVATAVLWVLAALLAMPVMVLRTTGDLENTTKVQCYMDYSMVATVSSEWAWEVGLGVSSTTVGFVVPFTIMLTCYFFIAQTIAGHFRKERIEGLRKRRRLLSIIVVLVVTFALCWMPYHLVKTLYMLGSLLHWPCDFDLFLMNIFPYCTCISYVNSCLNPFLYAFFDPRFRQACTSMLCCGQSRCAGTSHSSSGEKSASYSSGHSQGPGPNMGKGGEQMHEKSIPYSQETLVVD

T2: YFP-tagged human APJ receptor (human, UniProt P35414 1-380)
T2 construct: whole, on cells; also called hAPJ; APJ WT; not shown: YFP tag
T2 sequence (looked up): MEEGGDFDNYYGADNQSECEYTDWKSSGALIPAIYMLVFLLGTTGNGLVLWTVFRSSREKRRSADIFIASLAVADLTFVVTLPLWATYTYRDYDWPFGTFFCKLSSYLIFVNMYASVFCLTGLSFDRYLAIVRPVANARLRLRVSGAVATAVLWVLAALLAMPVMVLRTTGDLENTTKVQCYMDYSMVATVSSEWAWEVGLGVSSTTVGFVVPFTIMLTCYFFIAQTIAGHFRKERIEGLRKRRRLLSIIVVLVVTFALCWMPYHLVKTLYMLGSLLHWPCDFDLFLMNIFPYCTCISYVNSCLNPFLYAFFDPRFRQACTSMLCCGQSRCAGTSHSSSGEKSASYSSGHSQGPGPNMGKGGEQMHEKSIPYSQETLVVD

T3: human APJ (transfected HEK293 cells, Gαi1 BRET assay) (human, UniProt P35414 1-380)
T3 sequence (looked up): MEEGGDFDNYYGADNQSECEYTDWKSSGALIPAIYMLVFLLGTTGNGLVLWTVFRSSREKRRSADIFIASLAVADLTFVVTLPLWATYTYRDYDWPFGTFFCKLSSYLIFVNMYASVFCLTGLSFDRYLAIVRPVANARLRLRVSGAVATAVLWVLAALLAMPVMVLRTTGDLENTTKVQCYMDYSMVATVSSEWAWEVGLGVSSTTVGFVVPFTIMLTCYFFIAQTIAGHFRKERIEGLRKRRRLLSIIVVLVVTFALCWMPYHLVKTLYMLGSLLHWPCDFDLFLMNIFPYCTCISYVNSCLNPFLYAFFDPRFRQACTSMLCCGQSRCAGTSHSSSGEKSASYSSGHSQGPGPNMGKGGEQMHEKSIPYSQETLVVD


Key:
in vivo = conditions: for AUC: male Sprague-Dawley rats
Procedure: Male Sprague-Dawley rats of 8-10 weeks were used in this study. […] Animals were placed in a containment chamber prior to i.v. injection to facilitate blood sampling. […] Those samples were immediately stored on crushed ice before being centrifuged at 13000 rpm for 5 min at 4° C. to isolate plasma (upper layer). The resultant plasma was transferred to polypropylene tubes, and immediately frozen at −80° C.
A combination of a protein precipitation and a solid phase extraction step were used to extract the peptides. Plasma sample was defrosted on ice. After vortex agitation (60 s), 100 μL sample was withdraw and 300 μL cold acetonitrile was added to precipitate the plasma proteins. The sample was then vortex (60 s) and centrifuged at 4500 rpm at 4° C. during 10 min. The supernatant was then isolated and directly pass through an HLB prime for additional clean up. The filtrate was diluted 10 times in 0.1% formic acid/water and filtered through a 0.22 μm syringe filter before LC/MS/MS analysis.
Samples were analyzed on a Sciex Qtrap 6500+ equipped with a microflow liquid chromatography (Eksigient M3 microflow) and a UPLC HSS-T3 column (1 mm×100 mm, 1.8 μm, equipped with a 0.2 μm fritted pre-filter). The solvent flow rate was set to 50 μL/min, the column temperature was kept at 40° C. and the injection volume was 3 μL. The mobile phase was 0.1% formic acid/water (A) and 0.1% formic acid/acetonitrile (B). The elution gradient starts with 2% of eluent B, increasing to 95% in 8 min, maintaining at 95% for 2 min and then back to initial conditions in 2 min for a total run time of 13 min. […] Analysis used two daughter traces (transitions), among them, the most abundant was for quantification and the second most abundant for confirmation.

Sprague-Dawley rats = assay: Echocardiography (cardiac performance) after s.c. injection; conditions: for effect on fractional shortening (FS) and cardiac output (CO): s.c. 0.2 μmol/kg, three hours after injection
Procedure: A two-dimensional short axis view of the LV was obtained at the level of the papillary muscle and the M-mode tracing was recorded. From these images, Heart Rate (HR) was calculated and LV End Diastolic (LVEDd) as well as LV End Systolic diameters (LVESd) were measured by the leading-edge method according to the American Society of Echocardiography guidelines. Fractional Shortening (FS) was calculated by the following formula: FS=([LVEDd-LVESd/LVEDd]×100%). Cardiac Output (CO) was assessed from a LV long axis view. Stroke Volume (SV) was calculated according to the Simpson method by tracing the endocardial border in end-systole and end-diastole and CO was obtained as CO=SV×HR.

hAPJ receptor [1] = molecular target: T1, hAPJ receptor; assay: BRET-based Gαi1 activation assay in HEK293 cells; format: cell-based; conditions: for Emax: HEK293, Table V, read-out: Gαi1 Emax
How it was run: (§1)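 HEK293 cells in HBSS stimulated with analogs from 10^−5 to 10^−11 M, 5 min at 37 °C (Gαi1) or 30 min at room temperature (β-arrestin2).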

hAPJ receptor [2] = molecular target: T1, hAPJ receptor; assay: BRET-based β-arrestin2 recruitment assay in HEK293 cells; format: cell-based; conditions: for Emax: HEK293
How it was run: as §1

[3] = tested on: anesthetized male Sprague-Dawley rats; assay: In vivo blood pressure measurement; set-up: species or system rat; conditions: i.v. bolus, doses 19.6 and 65 nmol/kg
Procedure: The animal experimental protocols were approved by the Animal Care Committee of Université de Sherbrooke and complied with policies and directives of the Canadian Council on Animal Care.
Male Sprague-Dawley rats (8-10 weeks of age) were anesthetized with ketamine/xylazine injection (87/13 mg/kg i.m.) and placed in supine position on a thermostatic pad. Their right carotid artery was catheterized with PE 50 (filled with heparinized saline), connected to a Micro-Med transducer (model TDX-300, Calabasas, USA) and Micro-Med blood pressure analyzer (model BPA-100c). […] This i.v. catheter was flushed with saline (0.2 mL) immediately after each injection.

[4] = Rat plasma stability (half-life in vitro); format: in vitro ADME; conditions: rat plasma; for half-life at […]: male, Sprague-Dawley, rat, plasma
Procedure: Plasma was obtained from male Sprague-Dawley rats by collecting blood in heparin tube and centrifugating at 13,000 rpm to remove blood cells. The isolated plasma was stored at −80° C. and thawed right before the test. In 96-well plate, 6 μL of peptide solution at 1 mM was incubated with 27 μL of plasma at 37° C. in an oven equipped with orbital shaker. Tightly fitted caps were used to seal the wells to avoid water evaporation during incubation. […] A 96-well UPLC plate was put at the bottom to collect the samples. Both plates were centrifuged at 500 g for 10 min at 4° C. to accelerate the filtration. […] The quantity of remaining peptide was plotted into an exponential one-phase decay curve using GraphPad Prism 8 which allowed to calculate peptide half-life. The results were presented as mean±SEM of at least 3 independent experiments, each done in simplicate.
The percentage of remaining analogue was calculated by doing the ratio between AU of compound and AUC of internal standard. Half-lives were extrapolated from curves.

[5] = molecular target: human APJ (transfected HEK293 cells, Gαi1 BRET assay) (human) (UniProt P35414); assay: cell-based or functional assay
[6] = molecular target: T2, YFP-tagged human APJ receptor; assay: competitive radioligand binding, HEK293-hAPJ membranes
[7] = molecular target: T3, human APJ (transfected HEK293 cells, …); assay: cell-based or functional assay
[8] = molecular target: T2, YFP-tagged human APJ receptor; assay: competitive radioligand binding, HEK293-hAPJ membranes; remark: listed apart in the source
[9] = male, Sprague-Dawley, rat, plasma, iv, 3 mg/kg

Molecule | AUC (in vivo; i.v. 3 mg/kg) | effect on fractional shortening (FS) and cardiac output (CO) (Sprague-Dawley rats) | Emax (hAPJ receptor [1]) [%] | Emax (hAPJ receptor [2]; Table V, read-out: ß-arr2 Emax) [%] | Emax (hAPJ receptor [2]; read-out: β-arr2 Emax) [%] | ΔMABP (drop in blood pressure) [3] [mmHg] | further results
CSCC[C@H](NC(=O)[C@@H]1CCCN1C(=O)CNC(=O)[C@H](CCCCN)NC(=O)[C@H](Cc1cnc[nH]1)NC(=O)[C@H](CO)NC(=O)[C@H](CC(C)C)NC(=O)[C@H](CCCNC(=N)N)NC(=O)[C@@H]1CCCN1C(=O)[C@H](CCCNC(=N)N)NC(=O)[C@@H]1CCC(=O)N1)C(=O)N1CCC[C@H]1C(=O)N[C@@H](Cc1ccccc1)C(=O)O [Compound 60, Pyr-R-P-R-L-S-H-K-G-P-M-P-F, reference compound] | 0.0002 ± 0.0001 min*(mg/mL) | no observable effect | – | – | – | – | completely disappeared after (in vivo; i.v. 3 mg/kg): 5 min; clearance (in vivo; [9]): > 100 mL/min/kg
CCCC[C@H](NC(=O)[C@@H]1CCCN1C(=O)CNC(=O)[C@H](CCCCN)NC(=O)[C@@H]1Cc2cncn2CC=CC[C@H](NC(=O)[C@H](CCCNC(=N)N)NC(=O)[C@@H]2CCC(=O)N2)C(=O)N[C@@H](CCCNC(=N)N)C(=O)N[C@@H](CC(C)C)C(=O)N[C@@H](CO)C(=O)N1)C(=O)N1CCC[C@H]1C(=O)N[C@@H](Cc1ccccc1)C(=O)O [Compound 15, Pyr-R-c[X-R-L-S-Alh]c-K-G-P-Nle-P-F] | – | – | 99 | 115 | 115 | −40 | –
CCCC[C@H](NC(=O)[C@@H]1CCCN1C(=O)CNC(=O)[C@H](CCCCN)NC(=O)[C@@H]1CC=CC[C@H](N)C(=O)N[C@@H](CCCNC(=N)N)C(=O)N[C@@H](CC(C)C)C(=O)N[C@@H](CO)C(=O)N1)C(=O)O [Compound 29, NH2-c[X-R-L-S-X]c-K-G-P-Nle] | – | – | 99 | 69 | 69 | −13 | times less stable than 20 [4]: 3 times; times less stable than full-length analog 13 [4]: 5 times
CCCC[C@H](NC(=O)[C@@H]1CCCN1C(=O)CNC(=O)[C@H](CCCCN)NC(=O)[C@@H]1CC=CC[C@H](N)C(=O)N[C@@H](CCCNC(=N)N)C(=O)N[C@@H](CC(C)C)C(=O)N[C@@H](CO)C(=O)N1)C(=O)N1CCC[C@H]1C(=O)N[C@@H](Cc1ccccc1)C(=O)O [Compound 20, NH2-c[X-R-L-S-X]c-K-G-P-Nle-P-F] | – | – | 100 | 98 | 98 | −27 | –
CC(C)C[C@@H]1NC(=O)[C@H](CCCNC(=N)N)NC(=O)[C@@H](N)CC=CC[C@@H](C(=O)N[C@@H](CCCCN)C(=O)NCC(=O)N2CCC[C@H]2C(=O)N[C@H](Cc2ccc3ccccc3c2)C(=O)O)NC(=O)[C@H](CO)NC1=O [Compound 43, NH2-c[X-R-L-S-X]c-K-G-P-(D-2Nal)] | 8.80 ± 0.41 min*(mg/mL) | significant increase in both FS and CO | 105 | 55 | 55 | – | agonist character on Gαi1 (hAPJ receptor [1]): full agonists; agonist character on β-arrestin (hAPJ receptor [2]): partial agonists; half-life at […] ([4]; Table I, 37° C., up to 24 h, read-out: Half-life in vitro (converted)): > 24 h; half-life at […] ([4]; Table V, read-out: Half-life t1/2): > 24 h; level at 5 min (in vivo; [9]): 36100 ng/mL; level at 4 h (in vivo; [9]): 8600 ng/mL; effect on blood pressure [3]: no effect; CO increase from baseline (Sprague-Dawley rats; s.c. 2 μmol/kg, 6 h): 16%; FS increase (Sprague-Dawley rats; s.c. 2 μmol/kg, 6 h): 17%
Ac-Ape17-Met15Nle (KT03-12) (peptide) | – | – | – | – | – | – | EC50 Gαi1 [5]: 2.88 nM; Ki [6]: 0.15 nM
CC(C)C[C@@H]1NC(=O)[C@H](CCCNC(=N)N)NC(=O)[C@@H](N)CC=CC[C@@H](C(=O)N[C@@H](CCCCN)C(=O)NCC(=O)N2CCC[C@H]2C(=O)N[C@H](Cc2cccc3ccccc23)C(=O)O)NC(=O)[C@H](CO)NC1=O [Compound 42, NH2-c[X-R-L-S-X]c-K-G-P-(D-1Nal)] | 1.33 ± 0.18 min*(mg/mL) | significant increase only in FS | 103 | 70 | 70 | −24 | agonist character on Gαi1 (hAPJ receptor [1]): full agonists; agonist character on β-arrestin (hAPJ receptor [2]): partial agonists; plasma presence at 4 h (in vivo; 3 mg/kg): completely cleared from plasma
H-[AllylGly]RLS[AllylGly]KGP[d1Nal] (staple 1-5) [Compound 42 (KT04-43)] | – | – | – | – | – | – | Gαi1 Emax (%) [7]: 103%; Ki [6]: 0.6 nM
Ac-ENTN[8‑aminooctanoic acid]RPRLKHKGP[Nle]PF (lactam 1-10) [Compound 46 (KT01-145)] | – | – | – | – | – | – | Ki [8]: 32 nM
RKPXY (NH2-R-c[K(N-butenyl)-P-X]-Tyr(Obn): K(N-butenyl) 2 and X (allylglycine) 4 close the macrocycle; Tyr(OBn) 5) [Compound 50 (KT01-181)] | – | – | – | – | – | – | Ki [8]: 7180 nM
